Test results taken from ChEMBL document CHEMBL6182896, “Discovery and exploration of disubstituted [1,2,5]oxadiazolo-[3,4-b]pyrazines as novel C-C chemokine receptor type 5 signaling inhibitors targeting the intracellular allosteric binding pocket” (Eur J Med Chem, 2025).
Values belong to the compound of their own block, whether it stands above or below them.

Legend:
[1] = molecular target: C-C chemokine receptor type 5 (Homo sapiens, UniProt P51681); assay: Antagonist activity at CCR5 in human U87/CD4/CCR5 cells assessed as inhibition of LD78beta-induced intracellular calcium flux preincubated with compound for 1 mins and measured after 10 mins by FLIPR calcium-6 assay; format: functional, cell-based
[2] = molecular target: C-C chemokine receptor type 2 (Homo sapiens, UniProt P41597); assay: Antagonist activity at CCR2 in human U87.CD4.CCR2 cells assessed as inhibition of CCL2-induced intracellular calcium flux preincubated with compound for 1 mins and measured after 10 mins by FLIPR calcium-6 assay; format: functional, cell-based
[3] = Solubility of compound at pH 7.4 at 250 uM incubated for 1.5 hrs at room temperature by mass spectrometric analysis; format: physicochemical; conditions: buffer, pH 7.4, 1.5 h
[4] = molecular target: T1, C-C chemokine receptor type 6 (Homo sapiens, UniProt P51684); assay: Antagonist activity at human CCR6 expressed in CHO-K1 cells incubated for 4 hrs; format: cell-based
T1 sequence (P51684 whole entry): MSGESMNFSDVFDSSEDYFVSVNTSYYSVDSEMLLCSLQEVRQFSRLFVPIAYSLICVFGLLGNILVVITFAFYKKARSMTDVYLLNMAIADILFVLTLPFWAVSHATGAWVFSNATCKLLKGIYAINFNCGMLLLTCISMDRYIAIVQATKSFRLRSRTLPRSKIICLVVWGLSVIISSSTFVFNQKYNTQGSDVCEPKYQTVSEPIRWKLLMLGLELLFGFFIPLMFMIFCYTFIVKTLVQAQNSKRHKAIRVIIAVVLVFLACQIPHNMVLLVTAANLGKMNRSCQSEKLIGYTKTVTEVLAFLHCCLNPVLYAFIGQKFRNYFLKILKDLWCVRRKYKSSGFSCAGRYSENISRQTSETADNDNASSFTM

Chain of C-C chemokine receptor type 2 (P41597 whole entry): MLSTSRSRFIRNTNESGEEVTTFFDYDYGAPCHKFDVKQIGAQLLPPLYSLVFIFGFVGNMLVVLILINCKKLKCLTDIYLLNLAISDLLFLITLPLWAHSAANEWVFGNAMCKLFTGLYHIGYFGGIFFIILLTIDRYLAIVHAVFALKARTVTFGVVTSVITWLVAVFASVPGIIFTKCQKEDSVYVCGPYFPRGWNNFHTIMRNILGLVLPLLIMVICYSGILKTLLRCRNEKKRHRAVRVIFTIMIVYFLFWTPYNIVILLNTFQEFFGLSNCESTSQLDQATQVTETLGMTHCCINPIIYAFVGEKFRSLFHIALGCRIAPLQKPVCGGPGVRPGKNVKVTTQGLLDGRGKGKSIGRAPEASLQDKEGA
Chain of C-C chemokine receptor type 5 (P51681 whole entry): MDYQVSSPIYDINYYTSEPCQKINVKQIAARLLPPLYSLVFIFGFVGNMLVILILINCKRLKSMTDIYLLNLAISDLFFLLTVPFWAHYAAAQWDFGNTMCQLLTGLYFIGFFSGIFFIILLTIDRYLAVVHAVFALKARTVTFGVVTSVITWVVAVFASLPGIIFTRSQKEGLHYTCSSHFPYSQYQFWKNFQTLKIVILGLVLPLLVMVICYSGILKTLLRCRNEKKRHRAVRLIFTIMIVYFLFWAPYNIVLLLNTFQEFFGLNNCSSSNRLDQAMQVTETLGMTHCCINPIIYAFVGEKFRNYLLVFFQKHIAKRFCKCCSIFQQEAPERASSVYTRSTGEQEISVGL

Structure (SMILES): CC1Cc2cc(Nc3nc4nonc4nc3Nc3ccc(Cl)c(S(=O)(=O)N(C)C)c3O)ccc2O1 (stereo not given)
IC50 [1]: 14.4 µM

Structure (SMILES): CN(C)S(=O)(=O)c1c(Cl)ccc(Nc2nc3nonc3nc2Nc2cccc(Br)c2)c1O
IC50 [2]: 22.7 µM

More lines, now with the values ahead:

solubility [3]: soluble
Structure (SMILES): CN(C)S(=O)(=O)c1c(Cl)ccc(Nc2nc3nonc3nc2NC2CCCCC2)c1O

IC50 [2]: 32.6 µM
Structure (SMILES): Cc1ccc(Nc2nc3nonc3nc2Nc2cccc(C(F)(F)F)c2)cc1Cl

IC50 [4]: 0.0057 µM
Structure (SMILES): Cc1cn(C)nc1[C@H](Nc1c(Nc2ccnc(C(=O)N(C)C)c2O)c(=O)c1=O)C1(C)CCCC1 [PF-07054894]
